Source: patent US6689773B2, “Uracil substituted phenyl sulfamoyl carboxamides” (BASF Aktiengesellschaft, priority 2000, dated 2004)

Legend:
Format in all cases: in vivo
[1] = test system: GLXMA, Soybean, Glycine max, (L.) Merr.; test: Preemergence herbicidal evaluation (Example 148); conditions: rating scale 0-9, two to four weeks after treatment
Method in brief: (§1)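 Rate ~0.125–0.250 kg/ha, aqueous acetone spray onto soil post-sowing, pre-emergence. Greenhouse 2–4 wk. Visual injury score vs control; replicates averaged.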

[2] = test system: DIGSA, Crabgrass, (Hairy) L, Digitaria sanguinalis, (L)Scop; test: Preemergence herbicidal evaluation (Example 148); conditions: rating scale 0-9, two to four weeks after treatment
Method in brief: as §1

[3] = test system: ECHCG, Barnyardgrass, Echinochloa crusgalli, (L.)Beau; test: Preemergence herbicidal evaluation (Example 148); conditions: rating scale 0-9, two to four weeks after treatment
Method in brief: as §1

[4] = test system: XANST, Cocklebur, Xanthium strumariam; test: Preemergence herbicidal evaluation (Example 148); conditions: rating scale 0-9, two to four weeks after treatment
Method in brief: as §1

[5] = test system: ALOMY, Blackgrass, Alopecurus myosuroides; test: Preemergence herbicidal evaluation (Example 148); conditions: rating scale 0-9, two to four weeks after treatment
Method in brief: as §1

[6] = test system: AMBEL, Ragweed, Common, Ambrosia artemiisifolia, L.; test: Preemergence herbicidal evaluation (Example 148); conditions: rating scale 0-9, two to four weeks after treatment
Method in brief: as §1

[7] = test system: TRZAW, Winter wheat, Tritium Aestivum, L. (Winter); test: Preemergence herbicidal evaluation (Example 148); conditions: rating scale 0-9, two to four weeks after treatment
Method in brief: as §1

[8] = test system: IPOHE, Morningglory, Ivyleaf, Ipomoea hederacea, (L)Jacq.; test: Preemergence herbicidal evaluation (Example 148); conditions: rating scale 0-9, two to four weeks after treatment
Method in brief: as §1

[9] = test system: ZEAMX, Field corn, Zea mays L.; test: Preemergence herbicidal evaluation (Example 148); conditions: rating scale 0-9, two to four weeks after treatment
Method in brief: as §1

[10] = test system: CHEAL, Lambsquarters, Chenopodium album, L. Common; test: Preemergence herbicidal evaluation (Example 148); conditions: rating scale 0-9, two to four weeks after treatment
Method in brief: as §1

[11] = test system: SETVI, Green foxtail, Setaria viridis, (L.)Beau; test: Preemergence herbicidal evaluation (Example 148); conditions: rating scale 0-9, two to four weeks after treatment
Method in brief: as §1

[12] = test system: ABUTH, Velvetleaf, Abutilon theophrasti, Medic.; test: Preemergence herbicidal evaluation (Example 148); conditions: rating scale 0-9, two to four weeks after treatment
Method in brief: as §1

[13] = test system: GLXMA, Soybean, Glycine max, (L.) Merr.; test: Postemergence herbicidal evaluation (Example 147); conditions: rating scale 0-9, two to three weeks after treatment
Method in brief: (§2)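 Compound is applied postemergence at approximately 0.016–0.032 kg/ha through a nozzle at 40 psi, using 80/20 acetone/water with 1.0% SUN-IT II. Treated seedlings, grown about two weeks beforehand, stay in the greenhouse for two to three weeks before visual 0-9 scoring.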

[14] = test system: DIGSA, Crabgrass, (Hairy) L, Digitaria sanguinalis, (L)Scop; test: Postemergence herbicidal evaluation (Example 147); conditions: rating scale 0-9, two to three weeks after treatment
Method in brief: as §2

[15] = test system: ECHCG, Barnyardgrass, Echinochloa crusgalli, (L.)Beau; test: Postemergence herbicidal evaluation (Example 147); conditions: rating scale 0-9, two to three weeks after treatment
Method in brief: as §2

[16] = test system: XANST, Cocklebur, Xanthium strumariam; test: Postemergence herbicidal evaluation (Example 147); conditions: rating scale 0-9, two to three weeks after treatment
Method in brief: as §2

[17] = test system: ALOMY, Blackgrass, Alopecurus myosuroides; test: Postemergence herbicidal evaluation (Example 147); conditions: rating scale 0-9, two to three weeks after treatment
Method in brief: as §2

[18] = test system: AMBEL, Ragweed, Common, Ambrosia artemiisifolia, L.; test: Postemergence herbicidal evaluation (Example 147); conditions: rating scale 0-9, two to three weeks after treatment
Method in brief: as §2

[19] = test system: TRZAW, Winter wheat, Tritium Aestivum, L. (Winter); test: Postemergence herbicidal evaluation (Example 147); conditions: rating scale 0-9, two to three weeks after treatment
Method in brief: as §2

[20] = test system: IPOHE, Morningglory, Ivyleaf, Ipomoea hederacea, (L)Jacq.; test: Postemergence herbicidal evaluation (Example 147); conditions: rating scale 0-9, two to three weeks after treatment
Method in brief: as §2

[21] = test system: ZEAMX, Field corn, Zea mays L.; test: Postemergence herbicidal evaluation (Example 147); conditions: rating scale 0-9, two to three weeks after treatment
Method in brief: as §2

[22] = test system: CHEAL, Lambsquarters, Chenopodium album, L. Common; test: Postemergence herbicidal evaluation (Example 147); conditions: rating scale 0-9, two to three weeks after treatment
Method in brief: as §2

[23] = test system: SETVI, Green foxtail, Setaria viridis, (L.)Beau; test: Postemergence herbicidal evaluation (Example 147); conditions: rating scale 0-9, two to three weeks after treatment
Method in brief: as §2

[24] = test system: ABUTH, Velvetleaf, Abutilon theophrasti, Medic.; test: Postemergence herbicidal evaluation (Example 147); conditions: rating scale 0-9, two to three weeks after treatment
Method in brief: as §2

For “3-(5-(N,N-Dimethyl)sulfamoylcarboxamido-4-chloro-2-fluorophenyl)-1,2,3,4-dihydro-6-trifluoromethylpyrimidin-2,4-dione [Example 54]”, the “Preemergence herbicidal rating GLXMA” value ([1]; rate 0.125 kg/ha) was 0.0, the “Preemergence herbicidal rating GLXMA” value ([1]; rate 0.25 kg/ha) was 0.0 and the “Preemergence herbicidal rating DIGSA” value ([2]; rate 0.125 kg/ha) was 4.0. The “Preemergence herbicidal rating DIGSA” value ([2]; rate 0.25 kg/ha) was 6.0, the “Preemergence herbicidal rating ECHCG” value ([3]; rate 0.125 kg/ha) was 3.0 and the “Preemergence herbicidal rating ECHCG” value ([3]; rate 0.25 kg/ha) was 3.0. The “Preemergence herbicidal rating XANST” value ([4]; rate 0.125 kg/ha) was 1.0, the “Preemergence herbicidal rating XANST” value ([4]; rate 0.25 kg/ha) was 3.0 and the “Preemergence herbicidal rating ALMOY” value ([5]; rate 0.125 kg/ha) was 0.0. For the same compound, the “Preemergence herbicidal rating ALMOY” value ([5]; rate 0.25 kg/ha) was 0.0, the “Preemergence herbicidal rating AMBEL” value ([6]; rate 0.125 kg/ha) was 7.0 and the “Preemergence herbicidal rating AMBEL” value ([6]; rate 0.25 kg/ha) was 8.0. For the same compound, the “Preemergence herbicidal rating TRZAW” value ([7]; rate 0.125 kg/ha) was 0.0, the “Preemergence herbicidal rating TRZAW” value ([7]; rate 0.25 kg/ha) was 0.0 and the “Preemergence herbicidal rating IPOHE” value ([8]; rate 0.125 kg/ha) was 0.0. The “Preemergence herbicidal rating IPOHE” value ([8]; rate 0.25 kg/ha) was 1.0, the “Preemergence herbicidal rating ZEAMX” value ([9]; rate 0.125 kg/ha) was 0.0 and the “Preemergence herbicidal rating ZEAMX” value ([9]; rate 0.25 kg/ha) was 0.0. The “Preemergence herbicidal rating CHEAL” value ([10]; rate 0.125 kg/ha) was 9.0, the “Preemergence herbicidal rating CHEAL” value ([10]; rate 0.25 kg/ha) was 9.0 and the “Preemergence herbicidal rating SETVI” value ([11]; rate 0.125 kg/ha) was 2.0. For the same compound, the “Preemergence herbicidal rating SETVI” value ([11]; rate 0.25 kg/ha) was 3.0, the “Preemergence herbicidal rating ABUTH” value ([12]; rate 0.125 kg/ha) was 9.0 and the “Preemergence herbicidal rating ABUTH” value ([12]; rate 0.25 kg/ha) was 9.0. The “Postemergence herbicidal rating GLXMA” value ([13]; rate 0.016 kg/ha) was 8.0, the “Postemergence herbicidal rating GLXMA” value ([13]; rate 0.032 kg/ha) was 8.5 and the “Postemergence herbicidal rating DIGSA” value ([14]; rate 0.016 kg/ha) was 5.0. For the same compound, the “Postemergence herbicidal rating DIGSA” value ([14]; rate 0.032 kg/ha) was 6.0, the “Postemergence herbicidal rating ECHCG” value ([15]; rate 0.016 kg/ha) was 6.0 and the “Postemergence herbicidal rating ECHCG” value ([15]; rate 0.032 kg/ha) was 8.0. For the same compound, the “Postemergence herbicidal rating XANST” value ([16]; rate 0.016 kg/ha) was 9.0, the “Postemergence herbicidal rating XANST” value ([16]; rate 0.032 kg/ha) was 9.0 and the “Postemergence herbicidal rating ALMOY” value ([17]; rate 0.016 kg/ha) was 2.0. For the same compound, the “Postemergence herbicidal rating ALMOY” value ([17]; rate 0.032 kg/ha) was 2.0, the “Postemergence herbicidal rating AMBEL” value ([18]; rate 0.016 kg/ha) was 9.0 and the “Postemergence herbicidal rating AMBEL” value ([18]; rate 0.032 kg/ha) was 9.0. The “Postemergence herbicidal rating TRZAW” value ([19]; rate 0.016 kg/ha) was 5.5, the “Postemergence herbicidal rating TRZAW” value ([19]; rate 0.032 kg/ha) was 6.0 and the “Postemergence herbicidal rating IPOHE” value ([20]; rate 0.016 kg/ha) was 9.0. For the same compound, the “Postemergence herbicidal rating IPOHE” value ([20]; rate 0.032 kg/ha) was 9.0, the “Postemergence herbicidal rating ZEAMX” value ([21]; rate 0.016 kg/ha) was 6.5 and the “Postemergence herbicidal rating ZEAMX” value ([21]; rate 0.032 kg/ha) was 7.5. The “Postemergence herbicidal rating CHEAL” value ([22]; rate 0.016 kg/ha) was 9.0, the “Postemergence herbicidal rating CHEAL” value ([22]; rate 0.032 kg/ha) was 9.0 and the “Postemergence herbicidal rating SETVI” value ([23]; rate 0.016 kg/ha) was 7.0. The “Postemergence herbicidal rating SETVI” value ([23]; rate 0.032 kg/ha) was 7.0, the “Postemergence herbicidal rating ABUTH” value ([24]; rate 0.016 kg/ha) was 9.0 and the “Postemergence herbicidal rating ABUTH” value ([24]; rate 0.032 kg/ha) was 9.0.
`CCCCN(C)S(=O)(=O)NC(=O)c1cc(-n2c(=O)cc(C(F)(F)F)n(C)c2=O)c(F)cc1Cl` [Example 83] was tested, and the “Preemergence herbicidal rating GLXMA” value ([1]; rate 0.125 kg/ha) was 1.0, the “Preemergence herbicidal rating GLXMA” value ([1]; rate 0.25 kg/ha) was 4.0 and the “Preemergence herbicidal rating DIGSA” value ([2]; rate 0.125 kg/ha) was 1.0. The “Preemergence herbicidal rating DIGSA” value ([2]; rate 0.25 kg/ha) was 9.0, the “Preemergence herbicidal rating ECHCG” value ([3]; rate 0.125 kg/ha) was 4.0 and the “Preemergence herbicidal rating ECHCG” value ([3]; rate 0.25 kg/ha) was 5.0. The “Preemergence herbicidal rating XANST” value ([4]; rate 0.125 kg/ha) was 4.0, the “Preemergence herbicidal rating XANST” value ([4]; rate 0.25 kg/ha) was 5.0 and the “Preemergence herbicidal rating ALMOY” value ([5]; rate 0.125 kg/ha) was 0.0. The “Preemergence herbicidal rating ALMOY” value ([5]; rate 0.25 kg/ha) was 0.0, the “Preemergence herbicidal rating AMBEL” value ([6]; rate 0.125 kg/ha) was 8.0 and the “Preemergence herbicidal rating AMBEL” value ([6]; rate 0.25 kg/ha) was 8.0. For the same compound, the “Preemergence herbicidal rating TRZAW” value ([7]; rate 0.125 kg/ha) was 0.0, the “Preemergence herbicidal rating TRZAW” value ([7]; rate 0.25 kg/ha) was 0.0 and the “Preemergence herbicidal rating IPOHE” value ([8]; rate 0.125 kg/ha) was 7.0. For the same compound, the “Preemergence herbicidal rating IPOHE” value ([8]; rate 0.25 kg/ha) was 8.0, the “Preemergence herbicidal rating ZEAMX” value ([9]; rate 0.125 kg/ha) was 0.0 and the “Preemergence herbicidal rating ZEAMX” value ([9]; rate 0.25 kg/ha) was 2.0. The “Preemergence herbicidal rating CHEAL” value ([10]; rate 0.125 kg/ha) was 9.0, the “Preemergence herbicidal rating CHEAL” value ([10]; rate 0.25 kg/ha) was 9.0 and the “Preemergence herbicidal rating SETVI” value ([11]; rate 0.125 kg/ha) was 3.0. For the same compound, the “Preemergence herbicidal rating SETVI” value ([11]; rate 0.25 kg/ha) was 6.0, the “Preemergence herbicidal rating ABUTH” value ([12]; rate 0.125 kg/ha) was 8.0 and the “Preemergence herbicidal rating ABUTH” value ([12]; rate 0.25 kg/ha) was 9.0. For the same compound, the “Postemergence herbicidal rating GLXMA” value ([13]; rate 0.016 kg/ha) was 7.0, the “Postemergence herbicidal rating GLXMA” value ([13]; rate 0.032 kg/ha) was 7.5 and the “Postemergence herbicidal rating DIGSA” value ([14]; rate 0.016 kg/ha) was 3.0. The “Postemergence herbicidal rating DIGSA” value ([14]; rate 0.032 kg/ha) was 4.0, the “Postemergence herbicidal rating ECHCG” value ([15]; rate 0.016 kg/ha) was 8.0 and the “Postemergence herbicidal rating ECHCG” value ([15]; rate 0.032 kg/ha) was 8.0. The “Postemergence herbicidal rating XANST” value ([16]; rate 0.016 kg/ha) was 9.0, the “Postemergence herbicidal rating XANST” value ([16]; rate 0.032 kg/ha) was 9.0 and the “Postemergence herbicidal rating ALMOY” value ([17]; rate 0.016 kg/ha) was 0.0. For the same compound, the “Postemergence herbicidal rating ALMOY” value ([17]; rate 0.032 kg/ha) was 1.0, the “Postemergence herbicidal rating AMBEL” value ([18]; rate 0.016 kg/ha) was 6.0 and the “Postemergence herbicidal rating AMBEL” value ([18]; rate 0.032 kg/ha) was 8.0. The “Postemergence herbicidal rating TRZAW” value ([19]; rate 0.016 kg/ha) was 4.5, the “Postemergence herbicidal rating TRZAW” value ([19]; rate 0.032 kg/ha) was 5.5 and the “Postemergence herbicidal rating IPOHE” value ([20]; rate 0.016 kg/ha) was 8.0. The “Postemergence herbicidal rating IPOHE” value ([20]; rate 0.032 kg/ha) was 9.0, the “Postemergence herbicidal rating ZEAMX” value ([21]; rate 0.016 kg/ha) was 5.5 and the “Postemergence herbicidal rating ZEAMX” value ([21]; rate 0.032 kg/ha) was 6.0. For the same compound, the “Postemergence herbicidal rating CHEAL” value ([22]; rate 0.016 kg/ha) was 5.0, the “Postemergence herbicidal rating CHEAL” value ([22]; rate 0.032 kg/ha) was 5.0 and the “Postemergence herbicidal rating SETVI” value ([23]; rate 0.016 kg/ha) was 7.0. For the same compound, the “Postemergence herbicidal rating SETVI” value ([23]; rate 0.032 kg/ha) was 8.0, the “Postemergence herbicidal rating ABUTH” value ([24]; rate 0.016 kg/ha) was 9.0 and the “Postemergence herbicidal rating ABUTH” value ([24]; rate 0.032 kg/ha) was 9.0.
